system: KMS12-BM cells; assay: Antiproliferative activity on KMS12-BM (NIK WT) multiple myeloma cells (CellTiter-Glo); assay type: cell-based, human; conditions: Homo sapiens, KMS-12-BM, 96 h, 96 hr treatment, averaged values, read-out: KMS-12 Proliferation inhibition (IC50 (nM))
Experimental: (§1) Determination of Antiproliferative Activity on JJN-3 (NIK Translocated) and KMS12-BM (NIK WT) Multiple Myeloma Cells
(§2) All compounds tested were dissolved in DMSO and further dilutions were made in culture medium. Final DMSO concentration was 0.3% (v/v) in cell proliferation assays. Viability was assessed using CellTiter-Glo cell viability assay kit (Promega). The human JJN-3 and KMS12-BM cells (DSMZ) were cultured in RPMI 1640 medium supplemented with 2 mM L-glutamine, and 10% fetal calf serum (PAA). Cells were routinely kept as suspension cells at 37° C. in a humidified 5% CO2 atmosphere. Cells were passaged at a seeding density of 0.2×10^6/ml twice a week. Cells were seeded in black tissue culture treated 96-well plates (Perkin Elmer). Densities used for plating ranged from 15000 (JJN3) to 20000 (KMS12BM) cells per well in a total volume of […]. Drugs and/or solvents were added (15 μl) to a final volume of 150 μl. Following 96 hr of treatment, plates were removed from the incubator and allowed to equilibrate to room temperature for approx 10 min. 75 μl CellTiter-Glo reagent was added to each well that was then covered (Perkin Elmer Topseal) and shaken on plate shaker for 10 min. Luminescence was measured on a HTS Topcount (Perkin Elmer). Within an experiment, the results for each treatment were the mean of 2 replicate wells. For initial screening purposes, compounds were tested using a 9 point dilution curve (serial 1:3 dilutions). For each experiment, controls (containing no drug) and a blank incubation (containing cells read at the time of compound addition) were run in parallel. The blank value was subtracted from all control and sample values. For each sample, the mean value for cell growth (in relative light units) was expressed as a percentage of the mean value for cell growth of the control.

SMILES	IC50
CN1CCn2ncc(Nc3nccc(-c4cc(C#N)c5c(c4)[C@@](C)(CO)CN5)n3)c2C1=O [Compound 3b]	> 10000 nM
CC1CCCn2ncc(Nc3nccc(-c4cc(C#N)c5c(c4)[C@@](C)(CO)CN5)n3)c2O1 (single isomer, unassigned) [Compound 29b]	> 10000 nM
Cn1c2c(cc(Nc3nccc(-c4cc(C#N)c5c(c4)[C@@](C)(CO)CN5)n3)c1=O)COCC2 [Compound 48]	> 10000 nM
CC1(C)CCn2ncc(Nc3nccc(-c4cc(C#N)c5c(c4)[C@@](C)(CO)CN5)n3)c2O1 [Compound 25b]	> 10000 nM

Results, then the compound that gave them:

IC50	SMILES
> 10000 nM	C[C@]1(CO)CNc2c(C#N)cc(-c3ccnc(Nc4cc5c(nc4OCC4CC4)CCOC5)n3)cc21 [Compound 34]
~174 nM	C[C@]1(CO)CNc2c(C#N)cc(-c3ccnc(Nc4cnc5c(c4)CN(C4CC4)CC5)n3)cc21 [Compound 51]
525 nM	COc1nc2c(cc1Nc1nccc(-c3cc(C#N)c4c(c3)[C@@](C)(CO)CN4)n1)CN(C)CC2 [Compound 32]

system: JJN-3 cells; assay: Antiproliferative activity on JJN-3 (NIK translocated) multiple myeloma cells (CellTiter-Glo); assay type: cell-based, human; conditions: Homo sapiens, JJN-3, 96 h, JJN-3 (NIK translocated) cells, 96 hr treatment, averaged values, read-out: JJN-3 Proliferation inhibition (IC50 (nM))
Experimental: as §1, §2

SMILES	IC50
CN1CCn2ncc(Nc3nccc(-c4cc(C#N)c5c(c4)[C@@](C)(CO)CN5)n3)c2C1=O [Compound 3b]	91 nM
Cn1c2c(cc(Nc3nccc(-c4cc(C#N)c5c(c4)[C@@](C)(CO)CN5)n3)c1=O)COCC2 [Compound 48]	~2340 nM
CC1(C)CCn2ncc(Nc3nccc(-c4cc(C#N)c5c(c4)[C@@](C)(CO)CN5)n3)c2O1 [Compound 25b]	3020 nM

Now from value to compound:

IC50	SMILES
1740 nM	C[C@]1(CO)CNc2c(C#N)cc(-c3ccnc(Nc4cc5c(nc4OCC4CC4)CCOC5)n3)cc21 [Compound 34]
52 nM	C[C@]1(CO)CNc2c(C#N)cc(-c3ccnc(Nc4cnc5c(c4)CN(C4CC4)CC5)n3)cc21 [Compound 51]
195 nM	COc1nc2c(cc1Nc1nccc(-c3cc(C#N)c4c(c3)[C@@](C)(CO)CN4)n1)CN(C)CC2 [Compound 32]

same assay, conditions: JJN-3 (NIK translocated) cells, 96 hr treatment, averaged values, read-out: JJN-3 Proliferation inhibition (IC50 (nM))

IC50	SMILES
85 nM	CC1CCCn2ncc(Nc3nccc(-c4cc(C#N)c5c(c4)[C@@](C)(CO)CN5)n3)c2O1 (single isomer, unassigned) [Compound 29b]

molecular target: NIK/MAP3K14 (Homo sapiens (Human), UniProt Q99558); assay: Inhibition of auto-phosphorylation of recombinant human NF-kappaB-inducing kinase (NIK/MAP3K14) activity (AlphaScreen); assay type: biochemical; conditions: averaged values over all measurements on all batches, 25 microM ATP
Experimental: Inhibition of Auto-Phosphorylation of Recombinant Human NF-kappaB-Inducing Kinase ([…]) Activity (AlphaScreen®)
NIK/MAP3K14 auto-phosphorylation activity was measured using the AlphaScreen® (αscreen) format (Perkin Elmer). All compounds tested were dissolved in dimethyl sulfoxide (DMSO) and further dilutions were made in assay buffer. Final DMSO concentration was […] in assays. Assay buffer was 50 mM Tris pH 7.5 containing 1 mM EGTA (ethylene glycol tetraacetic acid), 1 mM DTT (dithiothreitol), 0.1 mM Na3VO4, 5 mM MgCl2, 0.01% Tween® 20. Assays were carried out in 384 well Alphaplates (Perkin Elmer). Incubations consisted of compound, 25 microM Adenosine-5′-triphosphate (ATP), and 0.2 nM NIK/MAP3K14. Incubations were initiated by addition of GST-tagged NIK/MAP3K14 enzyme, carried out for 1 h at 25° C. and terminated by addition of stop buffer containing anti-phospho-[…] Ser176/180 antibody. Protein A Acceptor and Glutathione-Donor beads were added before reading using an EnVision® Multilabel Plate Reader (Perkin Elmer). Signal obtained in the wells containing blank samples was subtracted from all other wells and IC50's were determined by fitting a sigmoidal curve to % inhibition of control versus Log10 compound concentration.

NIK/MAP3K14, sequence (Q99558 whole entry): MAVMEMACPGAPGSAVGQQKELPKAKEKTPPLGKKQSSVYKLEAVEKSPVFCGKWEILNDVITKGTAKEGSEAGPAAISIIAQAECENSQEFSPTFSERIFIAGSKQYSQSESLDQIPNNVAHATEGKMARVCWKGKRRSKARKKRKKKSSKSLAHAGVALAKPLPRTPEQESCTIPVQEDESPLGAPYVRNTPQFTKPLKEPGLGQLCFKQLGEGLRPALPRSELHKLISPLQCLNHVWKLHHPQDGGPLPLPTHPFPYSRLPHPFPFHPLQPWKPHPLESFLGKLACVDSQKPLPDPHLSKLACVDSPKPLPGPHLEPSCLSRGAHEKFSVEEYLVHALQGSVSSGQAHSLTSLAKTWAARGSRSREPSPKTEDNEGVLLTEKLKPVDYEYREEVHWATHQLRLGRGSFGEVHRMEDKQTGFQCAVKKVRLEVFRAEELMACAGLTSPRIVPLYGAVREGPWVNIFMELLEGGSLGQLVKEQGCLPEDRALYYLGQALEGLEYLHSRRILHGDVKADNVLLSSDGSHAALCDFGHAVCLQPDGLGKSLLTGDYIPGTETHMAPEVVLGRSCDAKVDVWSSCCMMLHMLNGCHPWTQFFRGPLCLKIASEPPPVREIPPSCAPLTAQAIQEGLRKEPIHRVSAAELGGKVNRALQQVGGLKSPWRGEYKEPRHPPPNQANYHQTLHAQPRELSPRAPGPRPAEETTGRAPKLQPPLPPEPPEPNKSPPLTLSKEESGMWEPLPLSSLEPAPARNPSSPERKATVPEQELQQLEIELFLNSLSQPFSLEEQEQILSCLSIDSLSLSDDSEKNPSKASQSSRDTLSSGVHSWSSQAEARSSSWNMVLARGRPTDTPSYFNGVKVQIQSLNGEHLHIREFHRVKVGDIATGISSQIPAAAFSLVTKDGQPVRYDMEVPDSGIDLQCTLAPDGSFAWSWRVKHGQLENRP

SMILES	IC50
CN1CCn2ncc(Nc3nccc(-c4cc(C#N)c5c(c4)[C@@](C)(CO)CN5)n3)c2C1=O [Compound 3b]	1 nM
CC1CCCn2ncc(Nc3nccc(-c4cc(C#N)c5c(c4)[C@@](C)(CO)CN5)n3)c2O1 (single isomer, unassigned) [Compound 29b]	3.9 nM
Cn1c2c(cc(Nc3nccc(-c4cc(C#N)c5c(c4)[C@@](C)(CO)CN5)n3)c1=O)COCC2 [Compound 48]	1.6 nM
CC1(C)CCn2ncc(Nc3nccc(-c4cc(C#N)c5c(c4)[C@@](C)(CO)CN5)n3)c2O1 [Compound 25b]	8.1 nM

Further lines, results first:

IC50	SMILES
10.5 nM	C[C@]1(CO)CNc2c(C#N)cc(-c3ccnc(Nc4cc5c(nc4OCC4CC4)CCOC5)n3)cc21 [Compound 34]
3.4 nM	C[C@]1(CO)CNc2c(C#N)cc(-c3ccnc(Nc4cnc5c(c4)CN(C4CC4)CC5)n3)cc21 [Compound 51]
1.7 nM	COc1nc2c(cc1Nc1nccc(-c3cc(C#N)c4c(c3)[C@@](C)(CO)CN4)n1)CN(C)CC2 [Compound 32]

system: P-IKKα levels in L363 cells; assay: Effect of compounds on P-IKKα levels in L363 (NIK translocated multiple myeloma) cells; assay type: cell-based, human; conditions: 2 hr treatment, averaged values, read-out: Inhibition of pIKKα_L-363 (IC50 (nM))
Experimental: Effect of Compounds on P-IKKα Levels in L363 (NIK Translocated Multiple Myeloma) Cells
All compounds tested were dissolved in DMSO and further dilutions were made in culture medium. Final DMSO concentration was 1% (v/v) in cell assays. The human L363 cells (ATCC) were cultured in RPMI 1640 medium supplemented with GlutaMax and 10% fetal calf serum (PAA). Cells were routinely maintained at densities of 0.2×10^6 cells per ml—1×10^6 cells per ml at 37° C. in a humidified 5% CO2 atmosphere. Cells were passaged twice a week splitting back to obtain the low density. Cells were seeded in 96 well plates (Nunc 167008) at 2×10^6 per ml media in a volume of 75 μl per well plus 25 μl 1 μg/ml recombinant human B-cell activating factor (BAFF/BLyS/TNFSF13B). Seeded cells were incubated at 37° C. in a humidified 5% CO2 atmosphere for 24 hr. Drugs and/or solvents were added (20 μl) to a final volume of 120 μl. Following 2 hr treatment plates were removed from the incubator and cell lysis was achieved by the addition of 30 μl 5× lysis buffer followed by shaking on a plate shaker at 4° C. for 10 min. At the end of this incubation lysed cells were centrifuged at 800×g for 20 min at 4° C. and the lysate was assessed for P-IKKα levels by sandwich immuno-assay carried out in anti-rabbit antibody coated Mesoscale plates. Within an experiment, the results for each treatment were the mean of 2 replicate wells. For initial screening purposes, compounds were tested using an 8 point dilution curve (serial 1:3 dilutions). For each experiment, controls (containing MG132 and BAFF but no test drug) and a blank incubation (containing MG132 and BAFF and 10 μM ADS125117, a test concentration known to give full inhibition) were run in parallel. The blank incubation value was subtracted from all control and sample values. To determine the IC50 a sigmoidal curve was fitted to the plot of % inhibition of control P-IKKα levels versus Log10 compound concentration.

IC50	SMILES
6 nM	CC1CCCn2ncc(Nc3nccc(-c4cc(C#N)c5c(c4)[C@@](C)(CO)CN5)n3)c2O1 (single isomer, unassigned) [Compound 29b]

same assay, conditions: Homo sapiens, L-363, 2 h, 2 hr treatment, averaged values, read-out: Inhibition of pIKKα_L-363 (IC50 (nM))

SMILES	IC50
CN1CCn2ncc(Nc3nccc(-c4cc(C#N)c5c(c4)[C@@](C)(CO)CN5)n3)c2C1=O [Compound 3b]	3 nM
Cn1c2c(cc(Nc3nccc(-c4cc(C#N)c5c(c4)[C@@](C)(CO)CN5)n3)c1=O)COCC2 [Compound 48]	31 nM
CC1(C)CCn2ncc(Nc3nccc(-c4cc(C#N)c5c(c4)[C@@](C)(CO)CN5)n3)c2O1 [Compound 25b]	7 nM

Continued, values first:

IC50	SMILES
23 nM	C[C@]1(CO)CNc2c(C#N)cc(-c3ccnc(Nc4cc5c(nc4OCC4CC4)CCOC5)n3)cc21 [Compound 34]
4 nM	C[C@]1(CO)CNc2c(C#N)cc(-c3ccnc(Nc4cnc5c(c4)CN(C4CC4)CC5)n3)cc21 [Compound 51]
10 nM	COc1nc2c(cc1Nc1nccc(-c3cc(C#N)c4c(c3)[C@@](C)(CO)CN4)n1)CN(C)CC2 [Compound 32]
